Experimental data published in paper PMC7525318, “Identification of Six Flavonoids as Novel Cellular Antioxidants and Their Structure-Activity Relationship” (Oxidative Medicine and Cellular Longevity, 2020).
Where two headings read alike, the source gives them in different places.

What was measured:
[1] = Oxygen radical antioxidant capacity (ORAC) assay; details: Trolox equivalents; AAPH, fluorescein
Description: The ORAC assay was evaluated as previously described by Cao et al. with some modifications. 50 μL of samples or Trolox with different concentrations and the fluorescein solution was added to a 96-well microplate, which was incubated at 37°C for 10 min. […] The ORAC values were calculated by the regression equation between the Trolox concentration and the net area under the curve (expressed as μmol Trolox eq/μmol sample).

HepG2 cells [2] = assay: Cytotoxicity assay (CCK-8); type: cell-based
Description: (§1) The cytotoxicity and antiproliferative activity assays were performed by using the CCK-8 assay kit. Briefly, HepG2 cells were cultured at a density of 4 × 10^4 cells/well or 2.5 × 10^4 cells/well in a 96-well microplate with growth medium. After incubation at 37°C, the growth medium is treated with 100 μL of growth medium containing different concentrations of tested compounds for 24 h or 72 h. The wells having growth medium without the tested compound served as control. Then, the cells were incubated with 10 μL/well CCK-8 solutions for 2 h at 37°C. The absorbance values of each well were measured at 450 nm using a microplate reader (SpectraMax i3x, ForteBio Analytics Co., Ltd., USA). The cytotoxic activity and antiproliferative effects of the tested compound was calculated as(1) Cytotoxicity %=1−As/Ac×100%, (2) Cell proliferation %=As/Ac×100%, where As is the absorbance of the well with compound; Ac is the absorbance of control.

HepG2 cells [3] = assay: Cellular antioxidant activity (CAA) assay; type: cell-based; details: DCFH-DA 25 μM, ABAP 600 μM
Description: The CAA assay was tested as described previously. 6 × 10^4 cells/well of HepG2 cells were seeded at a 96-well microplate with 100 μL of growth medium/well. […] Then, the cells were washed with PBS and treated with 100 μL of 600 μM ABAP (dissolved in HBSS), and the 96-well microplate was immediately placed into an Infinite SpectraMax i3x Multi-Mode Detection plate-reader at 37°C. […]

[4] = test system: glutathione peroxidase (GSH-Px); assay: Intracellular GSH-Px activity in ABAP-treated HepG2 cells; type: cell-based; details: for GSH-Px activity of PC value: % of PC value; for increase of GSH-Px activity: HepG2, pretreatment before ABAP
Description: (§2) HepG2 cells were seeded (1 × 10^6 cells/well) in six-well plates. After incubation for 24 h, the cells were pretreated with different concentration samples. Medium was washed by PBS and treated with 600 μM ABAP. The cells were collected and treated with cell lysis buffer (20 mM Tris at pH 7.5, 150 mM NaCl and 1% Triton X-100) at 4°C. The lysed cells were used to measure the intracellular activities of SOD, CAT, and GSH-Px by kits according to the manufacturer instructions (Wen 2015). Cells without sample and ABAP treatment were used as positive control (PC), while cells treated with ABAP but not sample were used as negative control (NC).

[5] = DPPH radical scavenging activity; details: 0.1 mM DPPH in methanol, 37°C, 30 min
Description: This assay was conducted as previously described by Wen et al. with some modifications. DPPH was freshly prepared in methanol at a concentration of 0.1 mM. The solution (20 μL) containing the tested compounds with different concentrations was added into the DPPH solution (180 μL) in the 96-well plates. […] The IC50 value was calculated on the scavenging activity against DPPH radical.

catalase (CAT) = assay: Intracellular CAT activity in ABAP-treated HepG2 cells; type: cell-based; details: for CAT activity of PC value: % of PC value; for increase of CAT activity: HepG2, pretreatment before ABAP
Description: as §2

HepG2 cells [6] = assay: Antiproliferative activity assay (CCK-8); type: cell-based
Description: as §1

[7] = test system: superoxide dismutase (SOD); assay: Intracellular SOD activity in ABAP-treated HepG2 cells; type: cell-based; details: then ABAP
Description: as §2

[8] = HepG2, pretreated with 15 μM, then ABAP
[9] = HepG2, pretreated with 30 μM, then ABAP
[10] = HepG2, pretreated with 45 μM, then ABAP
[11] = HepG2, pretreated at a higher concentration
[12] = HepG2, first of three concentrations (not given)
[13] = HepG2, second of three concentrations (not given)
[14] = HepG2, third of three concentrations (not given)
[15] = HepG2, pretreated with 10 μM, then ABAP
[16] = HepG2, pretreated with 20 μM, then ABAP
[17] = HepG2, pretreated with 5 μM, then ABAP

Compound	ORAC values [1]	cytotoxicity (HepG2 cells [2]; range of 10-160 μM)	EC50 (HepG2 cells [3]; Homo sapiens)	GSH-Px activity of PC value [4, 8]	GSH-Px activity of PC value [4, 9]	increase of GSH-Px activity [4]	IC50 [5]	CAT activity of PC value (catalase (CAT); [8])	CAT activity of PC value (catalase (CAT); [9])	increase of CAT activity (catalase (CAT))	SOD activity compared to NC cells [7, 11]	SOD activity compared to NC cells ([7]; HepG2, pretreated with 15 μM)	GSH-Px activity of PC value [4, 12]	GSH-Px activity of PC value [4, 13]	GSH-Px activity of PC value [4, 14]	CAT activity of PC value (catalase (CAT); [12])	CAT activity of PC value (catalase (CAT); [13])	CAT activity of PC value (catalase (CAT); [14])	GSH-Px activity of PC value [4, 15]	CAT activity of PC value (catalase (CAT); [15])	further results
COc1c(-c2ccc(O)c(O)c2)oc2cc(O)cc(O)c2c1=O [compound 5, 3-O-methylquercetin]	4.71 ± 0.12 μmol TE/μmol	no significant effects	19.5 ± 1.48 µM	59.74 ± 3.23%	69.08 ± 4.27%	dose-dependent manner	> 200 µM	49.55 ± 3.21%	69.34 ± 5.15%	dose-dependent manner	significant increase	insignificant increase									GSH-Px activity of PC value [4, 10]: 83.44 ± 4.18%; CAT activity of PC value (catalase (CAT); [10]): 80.67 ± 7.13%; cytotoxicity revealed by the cell proliferative assay (HepG2 cells [6]): slightly cytotoxicity; IC50 (HepG2 cells [6]; Homo sapiens): 90.7 ± 2.45 µM; cytotoxicity revealed by the cell proliferative assay (HepG2 cells [6]; listed as 3-O-methylquercetin): low cytotoxicity
O=c1c(O)c(-c2ccc(O)cc2)oc2c(O)c(O)cc(O)c12 [compound 8, Herbacetin]	5.05 ± 0.05 μmol TE/μmol	no significant effects	27.1 ± 2.47 µM			dose-dependent manner	> 200 µM			dose-dependent manner	significant increase	insignificant increase	54.02 ± 3.02%	63.46 ± 2.51%	82.02 ± 5.35%	50.86 ± 2.23%	67.01 ± 5.32%	80.86 ± 5.21%			
O=c1c(O[C@@H]2O[C@@H](CO)[C@H](O)[C@H]2O)c(-c2ccc(O)c(O)c2)oc2cc(O)cc(O)c12 [compound 10, Avicularin]		no significant effects	45.1 ± 2.12 µM		81.82 ± 5.52%	dose-dependent manner	71.7 µM		81.82 ± 4.25%	dose-dependent manner	significant increase								54.37 ± 3.05%	51.90 ± 3.21%	GSH-Px activity of PC value [4, 16]: 68.21 ± 4.25%; CAT activity of PC value (catalase (CAT); [16]): 68.95 ± 4.22%; SOD activity compared to NC cells ([7]; HepG2, pretreated with 10 μM): insignificant increase
O=c1c(O)c(-c2ccc(O)cc2)oc2cc(OC3O[C@H](CO)[C@@H](O)[C@H](O)[C@H]3O)cc(O)c12 (stereo partly shown) [compound 13, Kaempferol-7-O-glucopyranoside]		no significant effects	57.8 ± 3.12 µM			dose-dependent manner	> 200 µM			dose-dependent manner	significant increase										cytotoxicity (HepG2 cells [2]; at higher concentration): slight cytotoxicity; SOD activity compared to NC cells ([7]; HepG2, pretreated with 20 μM): insignificant increase
O=c1cc(-c2ccc(O)c(O)c2)oc2cc(O)c([C@@H]3O[C@H](CO)[C@@H](O)[C@H](O)[C@H]3O)c(O)c12 [compound 32, Isoorientin]		no significant effects	139 ± 5.21 µM			dose-dependent manner	> 200 µM			dose-dependent manner	significant increase		47.79 ± 3.28%	55.99 ± 3.57%	71.20 ± 4.28%	44.93 ± 2.23%	52.68 ± 3.42%	68.35 ± 3.72%			SOD activity compared to NC cells ([7]; HepG2, pretreated with 40 μM): insignificant increase
Rhamnetin [compound 2]	4.72 ± 0.02 μmol TE/μmol	no significant effects		81.24 ± 5.65%		dose-dependent manner	34 ± 0.61 µM	83.10 ± 4.54%		dose-dependent manner	significant increase								71.88 ± 4.23%	74.98 ± 4.25%	EC50 (HepG2 cells [3]): 10.8 ± 0.34 µM; GSH-Px activity of PC value [4, 17]: 65.09 ± 3.21%; CAT activity of PC value (catalase (CAT); [17]): 56.58 ± 3.25%; SOD activity compared to NC cells ([7]; HepG2, pretreated with 5 μM): insignificant increase
